Reference: patent US20190336496A1, “SELECTIVE BCL-2 INHIBITORS IN COMBINATION WITH AN ANTI-PD-1 OR AN ANTI-PD-L1 ANTIBODY FOR THE TREATMENT OF CANCERS” (AbbVie Inc., priority 2018, published 2019)
pIC50: −log10 of the molar value. Where “and” joins values, the source holds several entries; their conditions need not be identical. Equal entries are not always repeated.

How the values were obtained:
4T1 = experiment: Venetoclax cell killing (CellTiter-Glo); type: cell-based, murine; settings: Mus musculus, 4T1, 72 h; Breast Cancer; 10% FBS; 3 days
Method: (§1) Solid tumor cell lines were obtained from American Type Culture Collection (ATCC, Manassas, Va.) or the National Cancer Institute (NCI) and cultured in humidified incubators at 37° C. (5% CO2) in appropriate media (specified by supplier) supplemented with 10% fetal bovine serum (FBS) or 10% human serum (HS). 24 hours after plating into 96-well or 384-well tissue culture plates, venetoclax was added to cells at various concentrations (typically 0.010 to 10 μM in half-log increments) to perform concentration-response assessments of cell killing. After 1 to 5 days of culture in the presence of venetoclax, cell viability was assessed using CellTiter-Glo® reagent (Promega). IC50 values were determined by non-linear regression analysis of the concentration response data (Table 5 and Table 6).

CT26 = experiment: Venetoclax cell killing (CellTiter-Glo); type: cell-based, murine; settings: Mus musculus, CT26, 72 h; Colorectal; 10% FBS; 3 days
Method: as §1

B16F1 = experiment: Venetoclax cell killing (CellTiter-Glo); type: cell-based, murine; settings: Mus musculus, B16-F1, 72 h; Melanoma; 10% FBS; 3 days
Method: as §1

EMT6 = experiment: Venetoclax cell killing (CellTiter-Glo); type: cell-based, murine; settings: Mus musculus, EMT6, 72 h; Breast Cancer; 10% FBS; 3 days
Method: as §1

CMV-positive human PBMCs = experiment: CMV recall assay in the presence of anti-PD-1 antibody; type: cell-based; settings: 1 μg/mL CMV antigen, day 4
Method: The cytomegalovirus (CMV) recall assay was used assess the functional effects of venetoclax on antigen-experienced immune cells and to evaluate the effect of venetoclax on anti-PD1 immune response. This assay used cytomegalovirus (CMV) antigen to stimulate pre-existing memory T-cells in CMV-positive human PBMCs. Human CMV-positive PBMCs (Cat.No:1001; Lot. No. 3634JY17) and CMV antigen (Cat. No. 1004) were purchased from Astarte Biologics. 2×10^5 CMV-positive PBMCs were stimulated with 1 μg/mL of CMV antigen with or without inhibitors +/−anti-PD-1 (nivolumab) in Roswell Park Memorial Institute (RPMI) media supplemented with 10% fetal bovine serum (FBS) and 1% antibiotics. On day 4, secreted IFNγ was measured by ELISA and the live cells were analyzed using a live dead stain, Zombie Green™ (BioLegend®) using LSRFortessa™ X-20 instrument (BD Biosciences). Venetoclax reduced the percentage of live cells compared to DMSO as single agent or in combination with nivolumab (FIG. 10D).

[1] = system: T-cell subsets in peripheral blood; experiment: T-cell subsets in peripheral blood of healthy volunteers; type: in vivo, human; design: key: ↑: increase; ↓: decrease; ≈: no change; settings: one dose of 100 mg (or dose-equivalent); one day pre- vs seven days post-treatment; per subject
Method: In a clinical study sponsored by AbbVie Inc. healthy volunteers were administered with one dose of 100 mg of Compound (I) (venetoclax) or a dose-equivalent of Compound (IV) in a solid formulation to deliver 100 mg of Compound (I). T-cell subsets in peripheral blood were measured one day pre- and seven days post-treatment by flow cytometry. In most of the tested subjects the fraction of CD4+ and CD8+ T effector memory and terminally differentiated effector memory cells increased, the proportion of CD8+ naïve T-cells has remained unchanged or decreased, and the proportion of CD4+ and CD8+ central memory T cells has decreased following treatment with either agent (Table 7 and FIG. 13).

CT26 tumors = experiment: CT26 mouse colon carcinoma syngeneic model; type: in vivo; settings: CT26 in BALB/c mice; venetoclax 50 mg/kg/day orally 14 days; antibody 10 mg/kg IP every 4 days, 3 times; day 18
Method: BALB/c, C57BL/6, CB6F1 (C57BL/6 bred with BALB/c) and SCID mice were obtained from Charles River (Wilmington, Mass.).
EMT6, mouse mammary carcinoma and CT26, mouse colon carcinoma, cell lines were obtained from ATCC (Manassas, Va.).
Compound (I),venetoclax, was formulated in 10% ethanol+30% PEG 400+60% Phosal® 50PG. Venetoclax was administered orally once a day for 14 days at 50 mg/kg/day.
1×10^5 CT26, EMT6 or MC38 cells were subcutaneously injected with Matrigel into the flanks of BALB/c, CB6F1 or C57BL/6 mice, respectively. Seven days later, mice were randomized to treatment groups of vehicle, venetoclax, anti-PD-1/PD-L1 or the combination of venetoclax and anti-PD-1/PD-L1. Tumor volume was determined via measurements of the length (L) and width (W) of the tumor with electronic calipers and the volume was calculated according to the following equation: V=L×W2/2 using Study Director Version 2.1.11 (Studylog Systems Inc., South San Francisco). Complete response (CR) was defined as reduction in tumor volume to ≤25 mm^3 over at least 3 successive measurements.

[2] = system: CT26, MC38 and EMT6 cells; experiment: In vitro sensitivity of CT26, EMT6 and MC38 cells (FIG. 1); type: cell-based, mouse; settings: increasing doses, CellTiter-Glo after 72 hours
Method: FIG. 1: In vitro sensitivity of CT26, EMT6 and MC38 cells to Compound (I). […] CT26, MC38 and EMT6 cells were incubated with increasing doses of Compound (I) and viability was measured using CellTiter®-Glo (Promega) after 72 hours as described in Example 1.
Cancer Immunol Res. 5; 29-41 (2017)). Any reduction in checkpoint inhibitor-mediated tumor growth inhibition or response rates caused by the addition of venetoclax would indicate potential antagonism. The panel was composed of syngeneic models of solid tumors: CT26, MC38 (both colorectal carcinoma) and EMT6 (breast cancer). […] Likewise, only modest anti-tumor activity could be observed in these models with venetoclax alone, dosed daily at 50 mg/kg for 14 days (FIG. 3, FIG. 6, FIGS. 12A, 12B, 12C, and 12D). […] Rather, it enhanced their efficacy in certain cases.

[3] = system: CD4 T-cells co-cultured with MoDCs; experiment: Mixed lymphocyte reaction (MLR) assay; type: cell-based, human
Method: Mixed Lymphocyte Reaction (MLR) assay was used to examine venetoclax effect on T-cell function in response to immune stimulation. Monocytic-derived dendritic cells (MoDCs) were generated from fresh human blood. PBMCs were isolated using a Ficoll gradient. The PBMCs were allowed to adhere for 2 hours. After 2 hours, cells in suspension were removed. Fresh AIM V™ medium (ThermoFisher cat. #12055091) supplemented with granulocyte-macrophage colony-stimulating factor (GM-CSF, 80 ng/mL) and IL-4 (50 ng/mL) was added to the culture. After 5 days, the MoDCs were stimulated with IL-1α and TNF-α (0.2 ng/mL each) for 48 hours to increase major histocompatibility complex class II molecules (MHCII) expression. These activated MoDCs were then co-cultured with CD4 T-cells (Biospecialty Corp.) at a ratio of 10:1 (T-cells:MoDCs) in a mixed lymphocyte reaction (MLR). The cells were treated with control IgG (Isotype) or anti-PD-1 antibody (nivolumab or ABBV-181 along with either dimethyl sulfoxide (DMSO) or BCL-2 inhibitors venetoclax (Compound (I)) or Compounds (II) or (III). Antibodies were added at 10 μg/mL and the compound concentrations of venetoclax were as indicated in FIG. 11. The MLR was cultured for 5 days, after which the cells were analyzed by flow cytometry using an LSRFortessa™ X-20 instrument (BD Biosciences) to determine cell number and functional cytokine (IFNγ) responses.

CC1(C)CCC(CN2CCN(c3ccc(C(=O)NS(=O)(=O)c4ccc(NCC5CCOCC5)c([N+](=O)[O-])c4)c(Oc4cnc5[nH]ccc5c4)c3)CC2)=C(c2ccc(Cl)cc2)C1 [Compound (I), venetoclax]
pIC50 (4T1): < 5.00
pIC50 (CT26): < 5.00
pIC50 (B16F1): < 5.00
pIC50 (EMT6): < 5.00
IFNγ secretion from antigen specific CMV+ T cells (ELISA) (CMV-positive human PBMCs): remained comparable to DMSO control
percentage of live cells compared to DMSO (CMV-positive human PBMCs): reduced
CD4+ T-Cells TCM [1]: ↓
CD4+ T-Cells TEM [1]: ↑
CD4+ T-Cells TEMRA [1]: ↑ and ≈ (2×)
CD4+ T-Cells TN [1]: ≈ and ↑ and ↓
CD8+ T-Cells TCM [1]: ↓
CD8+ T-Cells TEM [1]: ↑
CD8+ T-Cells TEMRA [1]: ↑ (2×) and ≈
CD8+ T-Cells TN [1]: ↓ and ≈ (2×)
tumor growth inhibition (TGI) (CT26 tumors): 16%
in vitro sensitivity (viability) [2]: resistant
in vitro sensitivity (viability) ([2]; listed as venetoclax): None of these tumor cell lines exhibited sensitivity
IFNγ detected in the supernatant ([3]; MLR 5 days): same amount
proportion of CD4+ T-cells that produce IFNγ ([3]; MLR 5 days, with isotype control or anti-PD-1 antibody): increase
number of CD4+ T-cells ([3]; MLR cultured 5 days, antibodies at 10 μg/mL): reduced
CD3+ T cell numbers ([3]; MLR, BCL-2 inhibitors at 1 μM): declined comparably
production of IFNγ (secreted) ([3]; MLR, BCL-2 inhibitors at 1 μM): not antagonized
proportion of CD3+ T-cells that produce IFNγ ([3]; MLR, BCL-2 inhibitors at 1 μM): increase
